Here are results for seven compounds from patent US5608075A (priority 1995, dated 1997).

The structures appear in SMILES notation. Where a name gives a salt, the structure may show the parent alone.

Data set [1] has as its system blood pressure in conscious dogs. In words: Hypotensive effects in conscious dogs before and after furosemide. Format: in vivo, dog. Particulars: cumulative iv 0.3 to 3 mg/kg. Here is the method:
(§1) The hypotensive effects of 2-butyl-4-chloro-1-[2'-(1H-tetrazol-5-yl)biphenyl-4-yl)methyl]-5-hydroxymethylimidazole sodium salt were compared before and after furosemide administration to conscious dogs. […] Plasma renin activity (PRA) in these animals was 1.5±0.5 ng AI/ml/hr. Four days later, furosemide was given to three of these dogs at 10 mg/kg im at 18 and 2 hours before the experiment and increased PRA to 19.9±7.2 ng AI/ml/hr. […] Thus a combined therapy of these two classes of drugs will be likely to increase the response rate to therapy among hypertensive patients.

The test system of the next data set is pressor response to AII. In words: Inhibition of the pressor response to AII in conscious dogs. The class given is in vivo, dog. How it is done: as §1
For the next data set, the system named is plasma renin. In words: Plasma renin activity (PRA) in conscious dogs. The class given is in vivo, dog. Conditions: furosemide 10 mg/kg im at 18 and 2 hours before the experiment, three dogs; PRA before furosemide 1.5±0.5. Here is the method: as §1
Data set [2] has as its system blood pressure in renal hypertensive rats. In words: Antihypertensive effects in renal hypertensive rats (left renal artery ligation). The class given is in vivo, rat. How it is done:
This procedure increases blood pressure by increasing renin production with consequent elevation of AII levels. Compounds are administered orally at 100 mg/kg and/or intravenously via a cannula in the jugular vein at 10 mg/kg. Arterial blood pressure is continuously measured directly through a carotid artery cannula and recorded using a pressure transducer and a polygraph. Blood pressure levels after treatment are compared to pretreatment levels to determine the antihypertensive effects of the compounds (See Table 6).

A further data set has as its system AT1 receptor. Particulars: cited from earlier work.
A short description of data set [3]: Solubility studies in nonaqueous solvents at 25° C. The class given is physicochemical. Conditions: overnight equilibration; for solubility: organic solvent or mixture, isopropyl acetate.
Data set [4] is classed as physicochemical. Conditions: 25° C., overnight equilibration. The source says: From these facts it was concluded that the minor endotherm corresponds to an enantiotropic polymorphic transition. The major endotherm is the melting of the high-temperature form. The low-temperature stable polymorph (up to the transition temperature) is designated Form I and the high-temperature stable polymorph is designated Form II. […] Form I is the solid modification consistently obtained by solvent isolation. This was confirmed by recrystallizing the drug substance under varying conditions and analyzing by XRPD. Form II has been obtained only from DSC or related high temperature experiments.

Data set [5] has as its system renal vasoconstrictor effect of indomethacin. Conditions: dogs with non-hypotensive hemorrhage; cited from earlier work.
Another data set deals with AII. Particulars: cited from earlier work.
The subject of a further data set is arterial pressure. Particulars: cited from earlier work.
In data set [6] the test system is renal vasoconstrictor effect of indomethacin and meclofenamate. Particulars: dogs; cited from earlier work.

`CCCCc1nc(Cl)c(CO)n1Cc1ccc(-c2ccccc2-c2nn[nH]n2)cc1` [2-butyl-4-chloro-1-[2'-(1H-tetrazol-5-yl)biphenyl-4-yl)methyl]-5-hydroxymethylimidazole sodium salt]: in [1] (furosemide-treated dogs), the “decrease in blood pressure after furosemide” value is given as “significant decrease in blood pressure in a dose-dependent manner”. In data set [1] (n=4, before furosemide), the “blood pressure lowering in normotensive conscious dogs” value was “did not lower blood pressure”. The “inhibition of the pressor response to AII” value in the data set on pressor response to AII (cumulative iv 0.3 to 3 mg/kg, AII 0.1 μg/kg iv, 10 min post dose, before furosemide) is “effective in inhibiting the pressor response to AII”. Further, the “inhibition of the pressor response to AII after furosemide” value in the data set on pressor response to AII (cumulative iv, furosemide-treated dogs) is reported as “inhibited the pressor response to AII at the two higher doses”.
For `NS(=O)(=O)c1cc(C(=O)O)c(NCc2ccco2)cc1Cl` [furosemide], in the data set on plasma renin, the “plasma renin activity (PRA) after furosemide” value amounted to 19.9±7.2 ng AI/ml/hr.
As to `CCCCc1nc(Cl)c(CO)n1Cc1ccc(-c2ccccc2-c2nn[nH]n2)cc1` [Losartan, 2-butyl-4-chloro-1-[(2'-tetrazol-5-yl)-biphenyl-4-yl]methyl]-5-(hydroxymethyl)imidazole potassium salt], the “Antihypertensive Effects in Renal Hypertensive Rats, Intravenous Activity” value in data set [2] (intravenous, 10 mg/kg) is listed as “+ (Significant decrease in blood pressure at 10 mg/kg or less)”. The “Antihypertensive Effects in Renal Hypertensive Rats, Oral Activity” value in [2] (oral, 100 mg/kg) is “+ (Significant decrease in blood pressure at 100 mg/kg or less)”. For the same compound, the “AII antagonist activity, oral” value with AT1 receptor was “orally active AII antagonists”.
One may read the solubility as the concentration that dissolves in the medium under given conditions. On to `CCCCc1nc(Cl)c(CO)n1Cc1ccc(-c2ccccc2-c2nnn[nH]2)cc1.[K]` [Form I, 2-n-butyl-4-chloro-1-[(2'-(tetrazol-5-yl)-1,1'-biphenyl-4-yl)-methyl]-1H-imidazole-5-methanol potassium salt], for which the “solubility in ethyl acetate” value in [3] (ethyl acetate) was ~ 0.3 mg/g. For the same compound, in data set [3] (isopropanol), the solubility in isopropanol is listed as ~ 35 mg/g. In addition, in [3] (methyl ethyl ketone), the “solubility in methyl ethyl ketone” value was ~ 1 mg/g. In data set [3], the solubility worked out at 18 µg/mL. In addition, in data set [4], the “polymorph conversion in isopropyl acetate” value was “no conversion of either Form was observed”.
As to `CCCCc1nc(Cl)c(CO)n1Cc1ccc(-c2ccccc2-c2nn[nH]n2)cc1` [Form II, 2-n-butyl-4-chloro-1-[(2'-(tetrazol-5-yl)-1,1'-biphenyl]-1H-imidazole-5-methanolpotassium salt], the solubility in data set [3] came to 41 µg/mL. Moreover, in data set [4], the “polymorph conversion in isopropanol, methyl ethyl ketone and ethyl acetate” value was “converts to Form I after overnight equilibration”; the “polymorph conversion in isopropyl acetate” value is recorded as “no conversion of either Form was observed”.
Turning to `C[C@H](CS)C(=O)N1CCC[C@H]1C(=O)O` [captopril], the “reversal of renal vasoconstrictor effect of indomethacin” value in data set [5] is reported as “reverse the renal vasoconstrictor effect of indomethacin in dogs”.
With `CNCC(=O)N[C@@H](CCCN=C(N)N)C(=O)N[C@H](C(=O)N[C@@H](Cc1ccc(O)cc1)C(=O)N[C@H](C(=O)N[C@@H](Cc1cnc[nH]1)C(=O)N1CCC[C@H]1C(=O)N[C@@H](C)C(=O)O)C(C)C)C(C)C` [Saralasin, [Sar^1, Ala^8] AII], the “block of effects of AII on the blood pressure” value with AII (pithed rats) is recorded as “blocks the effects of AII on the blood pressure of pithed rats”. The “competitive antagonism of the actions of AII” value in the data set with AII (rat, in vivo) was “one of the most potent competitive antagonists of the actions of AII”. Besides, the oral effectiveness entry in the data set on arterial pressure (oral doses) was “oral doses being ineffective”. Further, in the data set on arterial pressure (parenteral administration), the “duration of pharmacological effects” value is “relatively short-lasting”. Besides, the “lowering of arterial pressure” value in the data set on arterial pressure (when the (elevated) pressure is dependent on circulating AII) is “lower arterial pressure in mammals and man”. Besides, the “pressor effects (agonistic character)” value in the data set on arterial pressure (when the pressure is not sustained by AII) was “generally elicits pressor effects when the pressure is not sustained by AII”. Also, the “inhibition of renal vasoconstrictor effect of indomethacin and meclofenamate” value in data set [6] is “inhibit the renal vasoconstrictor effect of indomethacin and meclofenamate in dogs”.
